Assay results: patent publication US6949528B1, “Compositions containing lysophosphatidic acids which inhibit apoptosis and uses thereof” (priority 1998, dated 2005)
Read-outs that look alike come from different tables or passages of the source.

How the values were obtained:
[1] = tested on: C3H/10T1/2 cells; assay: Anti-apoptotic activity assay: serum deprivation of C3H/10T1/2 cells; assay type: cell-based; conditions: for activity compared with lysophosphatidic acid: Table 3
Excerpt: In order to determine the […] of the claimed invention, the following method of analysis was used. The cell assay is described in detail in U.S. Pat. Nos. 5,637,486, 5,620,888, and 5,681,703, and Tomei et al. (1993) Proc Natl. Aci. 90:853-857. Briefly, mouse fibroblast C3H/10T1/2 cells (clone 8) were obtained from ATCC (Rockville, Md.) and were maintained in exponential growth phase in which the cell cycle is randomly distributed and no cells are arrested in G0, and in quiescence. Exponential growth phase was assured by seeding at 2000 cells per 1 ml (5 ml for 60 mm culture plate) five days prior to the beginning of the experiment. Assays were performed on cells only up to passage 15. At T=0, cultures were transferred to serum-free medium, as an appropriate stimulus, and seed extracts were added. Controls included 10^−7 and 5×10^−8 M 12-O-tetradecanoyl phorbol-13-acetate (TPA) to ensure the responsiveness of the cell culture. The samples were added to serum free medium and sterile filtered prior to addition to the cultures. Assays were performed in triplicate or quadruplicate. Analyses of the cell responses were made between 18 and 28 hours of serum deprivation. Two assays were performed on each cell culture plate consisting of differential cell counts.
1. All non-adherent or loosely adherent cells were removed from the culture dish and counted by appropriate techniques, typically counting by electronic particle counting instrument. These are the apoptotic cells, the serum deprived released cells (SDR), released by the action of cultivation in serum-free medium. Approximately 95% of these released cells are apoptotic as shown by both ultrastructure analysis and DNA fragmentation analysis.
2. The remaining adherent cells (ADH) were exposed to a buffered, typically pH 7.3, balanced salt solution such as a Hanks Balanced Salt Solution without calcium and magnesium salts containing 0.05% trypsin and 0.53 mM ethylene diaminetetraacetic acid (EDTA). Each culture was incubated at either room temperature or 37(C on a rocking platform to ensure uniform distribution of the trypsin reagent over the culture surface. After a standardized period of time, typically 10 minutes, the released cells were removed from each culture dish and measured by the same means as described above, typically electronic particle counting. This ADH cell count is comprised of both trypsin resistant and trypsin sensitive cells as described in U.S. Pat. Nos. 5,637,486, 5,620,888, and 5,681,703.
Anti-apoptotic activity is expressed in the following examples as the calculated concentration of material ((g/ml of media) required to save 50% of the cells released on serum free treatment.
The ability of 18:1-LPA an other LPAs to protect serum-starved cells from apoptotic death was measured using the C3H/10T1/2 cell assay, performed as described in Example 2. The effect of various compounds on the ability of lysophosphatidic acid to protect serum-starved cells from apoptotic death was also measured. Log phase cells were seeded in 60 mm Petri dishes at 175-350 cells per cm2 and maintained in Basal Medium Eagle (BME) supplemented with 10% Heat Inactivated Fetal Bovine Serum (HIFBS). On day 3 the cells were given fresh media. Treatment began on day 5 when the media containing serum was removed and replaced with the LPA mixture to be tested. After 24 hours of treatment, day 6, serum deprived released (SDR) cells (the […] cell population) and adherent (ADH) cells were separated and counted using an electronic cell counter (Coulter Corporation, Hialea, Fla.). […]

[2] = tested on: rat neonatal cardiomyocytes; assay: Cardiomyocyte death induced by serum/glucose deprivation; assay type: cell-based; conditions: for Emax: Rattus norvegicus, Cardiomyocyte, read-out: Maximum effect relative to 18:1 LPA in cardiomyocytes
Method: Cardiomyocytes were prepared from hearts of day-old Sprague Dawley rats by trypsinization and mechanical disaggregation (Simpson, (1985)) Circ. Res. 56:884-894. The cells were resuspended in MEM, 1×MEM vitamins (Gibco), 5% fetal bovine serum and 50 U/ml penicillin-G and pre-plated for 30 minutes to reduce contamination of non-myocytes. The non-adherent cardiac myocytes were separated and seeded in 2 ml in 35 mm dishes at a density of 3.5×10^5 viable cells per ml. The cells were allowed to adhere for 16-24 hours in a 37° C./5% CO2 humidified incubator.
For serum deprivation, the medium was replaced with fresh serum-free RPMI, whereas serum/glucose deprivation was performed using glucose-free RPMI. The induction of cell death by adriamycin or C2-ceramide was accomplished by the addition of the agent prepared in serum-free RPMI. As a model of ischemia, cultures in serum and glucose free RPMI were placed in an airtight chamber and the latter was continuously perfused with oxygen-free gas overlay of 95% N2/5% CO2 for 8 hours at 37° C. To model reperfusion of the ischemic cells, 10% fetal bovine serum, 2 g/L of glucose were added and the cultures were returned to a normal oxygen gas overlay (37° C./5% CO2) in a humidified incubator for 16 hours.
T investigate effects of LPA, LPA plus other phospholipids, PEG or their mixtures on cell death, various combinations of these components were added to cells in serum free medium at the beginning of cytotoxic treatment.
Because cardiomyocytes are terminally differentiated non-dividing cells, viability was determined by measurement of the decrease in the relative number of adherent cells. […] Adherent cardiomyocytes were collected from culture dishes using 0.25% Trypsin/0.05% EDTA and counted on Coulter Counter ZM and Coulter Channelyzer 256.

[3] = Electrophoresis radiobinding assay (native polyacrylamide gel); assay type: binding; conditions: FIG. 9 and other experiments
Method: Electrophoresis radiobinding assay. Proteins were analyzed on native polyacrylamide gels following incubation with ^3H-labeled 18:1-LPA. ^3H-labeled lysophosphatidic acid (1-oleyl) (DuPont NEN Products, Boston, Mass.) was added to tested proteins at 1 nM labeled 18:1-LPA/45_(g protein. Mixtures were incubated at a bicarbonate buffered saline/EDTA solution at 37° C. for 60 minutes. Incubated samples were mixed with native gel sample buffer (312_mM Tris pH 6.8, 50% glycerol, 0.05% bromophenol blue) and loaded entirely onto an 8% discontinuous native polyacrylamide gel. Following electrophoresis, proteins were fixed into the gels using an aqueous solution consisting of glacial acetic acid, 10% (vol/vol) and methan 130% (vol./vol.) solution. Fixed gels were then incubated for 60 minutes in autoradiography enhancer (EN^3HANCE, DuPont NEN Products, Boston, Mass.), and dried onto 3M chromatography paper (Whatman, Clifton, N.J.) and exposed to autoradiography film (X-Omat, Kodak, Rochester, N.Y.) for 72 hours at −80° C.

[4] = serum-deprived C3H/10T1/2 cells, 24 hours of treatment

CCCCCCCC/C=C\CCCCCCCCOCCCOP(=O)(O)O [Compound 16, 3-O-Oleyloxypropyl-1-phosphate]
Concentration for Max Effect [1, 4]: 10 µM | Maximum effect relative to 18:1 LPA [1, 4]: 100% | Concentration ranges for cardiomyocyte protection ([2]; serum/glucose deprivation): 1 to 3 µM | Maximum effect relative to 18:1 LPA in cardiomyocytes ([2]; serum/glucose deprivation): 100%

CCCCCCCC/C=C\CCCCCCCC(=O)OCCCOP(=O)(O)O [Compound 30, 1-(3-propyl oleoate)phosphate]
Concentration for Max Effect [1, 4]: 30 µM | Maximum effect relative to 18:1 LPA [1, 4]: 100% | Concentration ranges for cardiomyocyte protection ([2]; serum/glucose deprivation): 1 to 10 µM | Maximum effect relative to 18:1 LPA in cardiomyocytes ([2]; serum/glucose deprivation): 150%

CCCCCCCC/C=C\CCCCCCCC(=O)OCCCOP(O)(O)=S [Compound 68, 1-(3-propyloleoate)thiophosphate]
Concentration for Max Effect [1, 4]: 1 µM | Maximum effect relative to 18:1 LPA [1, 4]: 150% | Concentration ranges for cardiomyocyte protection ([2]; serum/glucose deprivation): .003 to 10 µM | Maximum effect relative to 18:1 LPA in cardiomyocytes ([2]; serum/glucose deprivation): 100%

CCCCCCCC/C=C\CCCCCCCCOCC(O)COP(=O)(O)O (racemic) [Compound 12, 3-O-Oleyl-rac-glycero-1-phosphate]
Emax ([1]; Mus musculus, serum-deprived C3H/10T1/2 cells, 24 hours of treatment, read-out: Maximum effect relative to 18:1 LPA): 100% | Concentration for Max Effect [1, 4]: 10 µM | Emax ([2]; serum/glucose deprivation): 100% | Concentration ranges for cardiomyocyte protection ([2]; serum/glucose deprivation): 1 to 10 µM

CCCCCCCC/C=C\CCCCCCCC(=O)OCC(COP(O)(O)=S)OC (racemic) [Compound 48, 3-O-Oleoyl-2-O-methyl-rac-glycero-1-thiophosphate]
activity compared with lysophosphatidic acid [1]: activity significantly higher than lysophosphaticid acid | Concentration for Max Effect [1, 4]: 1 µM | Maximum effect relative to 18:1 LPA [1, 4]: 130% | Concentration ranges for cardiomyocyte protection ([2]; serum/glucose deprivation): .03 to 10 µM | Maximum effect relative to 18:1 LPA in cardiomyocytes ([2]; serum/glucose deprivation): 100%

CCCCCCCCCCCCCCOCC(O)COP(=O)(O)O (racemic) [Compound 4, 3-O-Tetradecyl-rac-glycero-1-phosphate]
Maximum effect relative to 18:1 LPA: Toxic [1]: Toxic | lowest concentration at which cytotoxic effects were observed (column Concentration for Max Effect) ([1]; mouse, 24 h): 10 µM | Toxic concentration range in cardiomyocytes ([2]; serum/glucose deprivation): Toxic (3-30 μM)

CCCCCCCCCCOCCCOP(=O)(O)O [Compound 19, 3-Decyloxypropyl-1-phosphate]
Concentration for Max Effect [1, 4]: 30 µM | Maximum effect relative to 18:1 LPA [1, 4]: 50% | Concentration ranges for cardiomyocyte protection ([2]; serum/glucose deprivation): 1 to 10 µM | Maximum effect relative to 18:1 LPA in cardiomyocytes ([2]; serum/glucose deprivation): 100%

CCCCCCCC/C=C\CCCCCCCCOC(=O)C(COP(O)(O)=S)OC (racemic) [Compound 78, Oleyl 1-thiophosphoryl-2-O-methyl-rac-glycerate]
activity compared with lysophosphatidic acid [1]: activity significantly higher than lysophosphaticid acid | Concentration for Max Effect [1, 4]: 1 µM | Maximum effect relative to 18:1 LPA [1, 4]: 160% | Concentration ranges for cardiomyocyte protection ([2]; serum/glucose deprivation): .01 to 3 µM | Maximum effect relative to 18:1 LPA in cardiomyocytes ([2]; serum/glucose deprivation): 130%

CCCCCCCC/C=C\CCCCCCCC(=O)OCC(COP(=O)(OC)OC)OC (racemic) [Compound 45, Dimethyl 3-O-oleoyl-2-O-methyl-rac-glycero-1-phosphate]
Emax [2]: 30% | Concentration ranges for cardiomyocyte protection ([2]; serum/glucose deprivation): 30 µM

CCCCCCCC/C=C\CCCCCCCCOCC(COP(O)(O)=S)OC (racemic) [Compound 66, 3-O-Oleyl-2-O-methyl-rac-glycero-1-thiophosphate]
activity compared with lysophosphatidic acid [1]: activity significantly higher than lysophosphaticid acid | Concentration for Max Effect [1, 4]: 1 µM | Maximum effect relative to 18:1 LPA [1, 4]: 130% | Concentration ranges for cardiomyocyte protection ([2]; serum/glucose deprivation): .03 to 1 µM | Maximum effect relative to 18:1 LPA in cardiomyocytes ([2]; serum/glucose deprivation): 60%

CCCCCCCCCCOCC(O)COP(=O)(O)O (racemic) [Compound 11, 3-O-Decyl-rac-glycero-1-phosphate]
Emax ([2]; serum/glucose deprivation): 100% | Concentration ranges for cardiomyocyte protection ([2]; serum/glucose deprivation): 1 to 10 µM

B1: α-fetoprotein: α-fetoprotein from fetal bovine serum (protein, UniProt Q3SZ57 19-610, looked up)
Alpha-fetoprotein: RTMHKNAYGIDSILDSSPCSSGTNLVGLATIFFAQSVQGATYEEVSQMVKDVLTIIEKPTGSKQPAGCLENQVSAFLEEICREKEIPEKYGLSDCCSRTGEERHDCFLAHKKAAPASIPPFPVLEPVTSCKSYKENRELFINRYIYEIARRHPVLYAPTILSVANQYNKIIPHCCKAENATECFETKVTSITKELRESSLLNQHICAVMGKFGPRTFRAITVTKVSQKFPKANFTEIQKLVMDVAHIHEECCKGNVLECLQDGERVMSYICSQQDILSRQIAECCKLPTTLELGHCIIHAENDDKPEGLSPNVNRFLGDRDFNQLSSRDKDLSMARFTYEYSRRHTKLAVPIILRVAKGYQELLEKCSQSENPSECQDKGEEELEKYIQESQALAKRSCGLFQKLGEYYLQNAFLVAYTKKAPQLTSPELMALTRKMANAGAICCHLSEDKQLACGEGVADLIIGHLCIRHEENPINPGVDQCCTSSYSNRRPCFSSLVVDETYVPPPFSDDKFIFHKDLCQVQGVPLQTMKQQFLINLVKQKPQITEEQLETVVADFSGLLEKCCQSQEQEVCFTEEGPALISKTRAALGV
binding to 18:1-LPA, detectable band [3]: bind to 18:1-LPA
